The text below walks through data of patent publication US5017557A, “Treatment of infertility with somatotrophin releasing factor” (Industria Farmaceutica Serono S.p.A., priority 1987, dated 1991).

For test [1], the system named is follicle in maturative growth. Kind of test: echographic monitoring of follicle-genesis (volume/diameter of the follicle in maturative growth) in women. It is filed as in vivo, human (women). On the procedure: In the clinical trials reported below, GRF-29 was used in the form of lyophilized ampoules containing 100 or 150 micrograms (mcg) of GRF and 10 milligrams (mg) of mannitol as excipient. The lyophilized substance, dissolved in 2 ml of physiologic saline, was administered by the intravenous route.
In a clinical study carried out in conformity with the present invention women, both with normal follicle-genesis (as control) and follicle-genesisdeficiency were treated.
The study consisted in echographic and hormonal monitoring of follicle-genesis during which the volume of the follicle in maturative growth and the plasma levels of 17-beta estradiol and 17-alpha OH progesterone were recorded.
In the controls with normal follicle-genesis, 2 monitorings of the follicle-genesis were carried out in accordance with the above mentioned procedures: the first verified the basal situation and the second was under administration of GRF-29 at the dosage of 100 or 150 mcg/day i.v. from the 1st to the 7th day of the cycle.
In patients with follicle-genesis deficiency, monitorings of the follicle-genesis were carried out: without any medicinal administration (as control); under administration of GRF-29 at the dosage of 100 or 150 mcg/day i.v. from the 1st to the 7th day of the cycle; under administration of FSH (METRODIN® at the dosage of 75 or 150 I.U./day i.m. for 7 days; under the combined administration of FSH+GRF at the above dosage.

For a further test, the system named is spermatozoa. Kind of test: treatment of male infertility: seminal parameters. In kind it is in vivo, human (patients). The settings on record: oligospermia or azoospermia; 5 mcg/kg s.c. 3 times a week for three months; controls at 45 days and 3 months. On the procedure:
Patients suffering spermatogenesis deficiences of various entity with oligospermia or azoospermia, selected according to the criteria of the protocol, were treated for a period of three months with GRF-29 at the dosage of 5 mcg/kg s.c. 3 times a week.
The first control was carried out after 45 days from commencement of therapy, and the second control after 3 months.

The test system of test [2] is anti-GRF obtained in the rabbit (Amersham) against human GRF-44. The settings on record: rabbit anti-serum against human GRF-44 (Amersham); cited from earlier work.
For another test, the system named is Sertoli cells. Kind of test: GRF binding to isolated Sertoli cells. More on the design: species or system rat. From the text:
Sertoli cells were isolated from the testicles of 14 day old rats, according to the techniques already decribed (A. Fabbri, et al.--Opiate receptors are present in the rat testis: Identification and localization on Sertoli cells. Endocrinology 117: 2544-2546, 1985). Briefly, the procedure consisted in the separation of the tubular compartment from the Leydig cells by means of enzymatic dispersion with collagenase and subsequent treatment of the tubules with trypsin and collagenase. The separated cells were applied to 48 well Costar plates at the concentration of approximately 100,000 cells per well. The cells were allowed to adhere to the bottom of the wells for 24 hours in a metabolic incubator at 34° C., in 95% O2 /5% CO2. The cells were then washed and incubated in TC 199 10 mM TRIS medium in the presence of iodine labelled GRF-44 at the concentration of 10^-11 M for 60 minutes at 4° C. in the presence or absence of 10^-6 M cold (unlabelled) human GRF-44. Then the cells were washed 3 times with PBS+0.5% BSA at 4° C.; the radio-activity bound to the cells was then solubilized with 0.1N NaOH and read in a gammacounter.

Test [3] deals with serum levels of HGH, Sm-C, prolactin, LH, FSH. The note with it: intravenous administration, normal subjects during the menstrual cycle; cited from earlier work.

Entries after “also recorded” stand apart in the source; their conditions may differ. No end group written: not given here.

“GRF-29: biologically active fragment of Somatotrophin releasing factor; lyophilized ampoules of 100 or 150 mcg with 10 mg mannitol (YADAIFTNSYRKVLGQLSARKLLQDIMSR; ends and bridges not checked; UniProt P01286 32-60, looked up, fragment)”: the “observation of the cycle (follicular activation, dominance, ovulation, menstrual flow)” value in test [1] (Case 1, normal follicle-genesis, GRF-29 100 mcg/day i.v.) was “presence of follicular activation and evidence of a dominant follicle between the 13th and the 14th day of the cycle, with ovulation between the 15th and 16th day”; in test [1] (Case 3, patient, GRF-29 150 mcg/day i.v.), “presence of follicular activation, dominance and dehiscence”; in test [1] (Case 4, patient, GRF-29 100 mcg/day i.v.), “absence of ovulation but follicle-genesis was activated; also recorded: Menstrual flow occurred spontaneously on the 33rd day”; in test [1] (Case 6, patient, GRF-29 150 mcg/day i.v. day 1-7), “good ovarian activation was observed, followed by the growth of two follicles (within a micropolycistic ovary, as stated above), which presented an involution around the 17th day of the cycle”; in test [1] (Case 7, patient, GRF-29 150 mcg/day i.v. day 1-7), “presence of echographic notes of ovarian activation, but absence of follicular dominance”. In test [1] (administration during the first phase of the cycle, all cases), the “overall effect on follicle growth and ovulation” value was “facilitates follicle growth and anticipates, or even induces, ovulation (dehiscence)”. The “seminal parameters (number of spermatozoa, motility)” value in the test with spermatozoa is “improvement of the seminal parameters, and especially an increase in the number of spermatozoa and their motility”. Moreover, the Cross-reactivity in test [2] is listed as 100%.

“GRF: Somatotrophin releasing factor; measured as immunoreactivity by RIA, binding done with iodine labelled human GRF-44”: the “specific binding of GRF to Sertoli cells” value in the test with Sertoli cells (iodine labelled GRF-44 10^-11 M, 60 minutes at 4° C., with or without 10^-6 M cold human GRF-44) is reported as 2.5 fmoles of peptide/70 mcg of protein; in the test on Sertoli cells (recalculated per mg of protein), “about 40 fmoles/mg of protein”. Besides, the “effect on serum hormone levels” value in test [3] is “produces an increase in serum levels of HGH and Sm-C but not of prolactin, LH or FSH”.
